# The source made the active and inactive calls.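 How the source made its calls: active means target enzyme band signal cut by at least 80% with no off-target protein band also blocked; inactive means weaker inhibition or any off-target band blocked.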
# What was measured:
# [1] = selectivity of GSTO1 blockers across lysate enzymes – cell lysate, MDA-MB-435 proteome, gel ABPP, endogenous enzyme, selectivity assay for GSTO1 inhibitor project, late-stage follow-up (AID 463102); settings: competitive gel ABPP, SE-Rh probe, measured here: total off-target bands hit, stronger effect = lower value
# [2] = biological target: Glutathione S-transferase omega-1 (Homo sapiens) (UniProt P78417); assay: as above; settings: competitive gel ABPP, SE-Rh probe, stronger effect = higher value
# Chain of Glutathione S-transferase omega-1 (Homo sapiens) (P78417 whole entry, looked up): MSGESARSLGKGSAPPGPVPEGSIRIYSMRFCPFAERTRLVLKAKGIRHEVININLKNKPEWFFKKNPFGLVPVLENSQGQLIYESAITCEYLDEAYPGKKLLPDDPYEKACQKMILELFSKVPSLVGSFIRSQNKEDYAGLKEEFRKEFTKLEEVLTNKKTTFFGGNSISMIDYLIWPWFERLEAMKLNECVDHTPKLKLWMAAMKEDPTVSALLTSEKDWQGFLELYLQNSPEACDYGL
Compound,anti-target hits [1],"inhibition ([2]; GSTO1 inhibition, at 1 µM) [%]",inhibition ([2]; at 0.1 µM)
O=C(CCl)N1CCN(S(=O)(=O)c2ccc3ccccc3c2)CC1,5,100,57% (inactive)
COc1ccc(C(C(=O)NC2CCCCC2)N(C(=O)CCl)c2ccc(Cl)cc2)cc1 (stereo not drawn),0,100,87%
O=S(=O)(c1ccc(Cl)cc1)N1CCC2(CC1)CO2,0,88,19% (inactive)
Cc1cccc(CN2CCN(C(=O)CCl)CC2)c1,2,89,26% (inactive)
Cc1ccc(N(CCCNC(=O)C(F)(F)F)C(=O)CCl)cc1,0,55,10% (inactive)
O=C(NCCCN(C(=O)CCl)c1ccc([N+](=O)[O-])cc1)c1ccc(F)cc1,2,90,29% (inactive)
C#CCNC(=O)C(c1ccc(OC)cc1)N(C(=O)CCl)c1cccc(Cl)c1 (stereo not drawn),1,100,69% (inactive)
O=C(CCl)N(CCCNC(=O)C(F)(F)F)c1ccccc1,0,73,16% (inactive)
C#CCCCCNC(=O)C(c1cccnc1)N(C(=O)CCl)c1ccc(F)cc1 (stereo not drawn),2,100,48% (inactive)
O=C(NC1CCCCC1)C(c1cccnc1)N(C(=O)CCl)c1cccc(Cl)c1 (stereo not drawn),2,100,100% (inactive)
CC(=O)NCCCN(C(=O)CCl)c1ccc([N+](=O)[O-])cc1,0,62,16% (inactive)
O=C(NC1CCCCC1)C(c1cccnc1)N(C(=O)CCl)c1ccc(Cl)cc1 (stereo not drawn),2,100,79% (inactive)
O=C(CCl)N(CCCCCNC(=O)C(F)(F)F)c1ccc([N+](=O)[O-])cc1,1,100,90% (inactive)
O=c1[nH]c(CCl)nc2cc(-c3ccc(F)cc3)sc12,4,100,77% (inactive)
C#CCNC(=O)C(c1ccc(OC)cc1)N(C(=O)CCl)c1ccc(Cl)cc1 (stereo not drawn),0,100,64% (inactive)
O=C(CCl)N(CCCNC(=O)C(F)(F)F)c1ccc(Cl)cc1,0,100,85%
O=C(NC1CCCCC1)C(c1cccnc1)N(C(=O)CCl)c1ccc(F)cc1 (stereo not drawn),2,100,71% (inactive)
O=C(CCl)N(CCCNC(=O)C(F)(F)F)c1cccc(C(F)(F)F)c1,0,100,62% (inactive)

Compound,anti-target hits [1],"inhibition ([2]; GSTO1 inhibition, at 1 µM) [%]",inhibition ([2]; at 0.1 µM)
O=C(NC1CCCCC1)C(c1cccnc1)N(C(=O)CCl)c1ccc(Cl)c(Cl)c1 (stereo not drawn),2,100,93% (inactive)
COc1ccc(C(CCN(Cc2ccc(OC)c(OC)c2)C(=O)CCl)c2ccccc2)cc1 (stereo not drawn),9,100,81% (inactive)
O=C(NC1CCCCC1)C(c1cccnc1)N(C(=O)CCl)c1ccc(C(F)(F)F)cc1 (stereo not drawn),1,55,0% (inactive)
COc1ccc(N(C(=O)CCl)C(C(=O)NC2CCCCC2)c2cccnc2)cc1 (stereo not drawn),1,100,45% (inactive)
C#CCCCCNC(=O)C(c1ccc(OC)cc1)N(C(=O)CCl)c1cccc(Cl)c1 (stereo not drawn),1,100,83% (inactive)
O=C(CCl)N(CCCNC(=O)C(F)(F)F)c1ccc(F)cc1,0,94,25% (inactive)
O=C(NC1CCCCC1)C(c1cccnc1)N(C(=O)CCl)c1cccc(C(F)(F)F)c1 (stereo not drawn),2,92,28% (inactive)
COc1ccc(N(CCCNC(=O)C(F)(F)F)C(=O)CCl)cc1,0,90,27% (inactive)
C#CCCC(=O)NCCCN(C(=O)CCl)c1ccc([N+](=O)[O-])cc1,0,100,59% (inactive)
Cc1ccc2c(c1)c1c3n2CCN(C(=O)CCl)C3CCC1 (stereo not drawn),6,93,38% (inactive)
COc1ccc(N(C(=O)CCl)C(C(=O)NCCc2ccccc2)c2cccs2)cc1Cl (stereo not drawn),4,100,85% (inactive)
O=C(CCl)N(CCCCNC(=O)C(F)(F)F)c1ccc([N+](=O)[O-])cc1,0,100,99%
C#CCCCCN(C(=O)CCl)c1ccc([N+](=O)[O-])cc1,0,100,51% (inactive)
C#CCN(CCCN(C(=O)CCl)c1ccc([N+](=O)[O-])cc1)C(=O)C(F)(F)F,0,100,100%
O=C(NCCCN(C(=O)CCl)c1ccc([N+](=O)[O-])cc1)c1ccccc1,2,93,34% (inactive)
COc1ccc(C(C(=O)NC2CCCCC2)N(C(=O)CCl)c2cccc(Cl)c2)cc1 (stereo not drawn),1,100,98% (inactive)
Cc1nn(-c2ccccc2)c(Cl)c1CN(C(=O)CCl)c1ccc(Cl)cc1,3,93,28% (inactive)
CCCCCCCCCCN(C(=O)CCl)c1ccc([N+](=O)[O-])cc1,6,100,67% (inactive)

# — PubChem BioAssay AID463102 (The Scripps Research Institute Molecular Screening Center, 2010)
